Source: US20190388349A1, “NON-TOXIC VEHICLE TO SOLUBILIZE, DELIVER, AND OBTAIN BIOLOGICAL ACTIVITY OF STEROID HORMONES AT CELL, TISSUE, AND ORGAN TARGETS, IN VITRO AND IN VIVO” (Government of the United States as Represented by the …, priority 2017, published 2019)

Assays:
[1] = tested on: MCF-7 breast cancer cells; assay: Cell death and cell growth in MCF-7 breast cancer cell cultures; assay type: cell-based; conditions: 5 nM E2; for cell growth / cell density (microscopic photograph): MCF-7 grown for 5 days, 25 μM androstene hormone, PEG 300 with 5% LIPOFECTAMINE
Method: (§1) Hormone dependent, noninvasive, epithelial phenotype (ER/PR positive MCF-7 breast cancer cells) and hormone independent, invasive, mesenchymal phenotype (ER/PR negative MDA-MB-231 breast cancer cell) cell suspensions were acquired and prepared in complete medium (DMEM/F12, 10% FBS, 1% penicillin/streptomycin (Gibco)). Cellular concentration was adjusted to 2×10^5 cells/mL.
(§2) Androstene hormone solutions according to embodiments of the present invention were prepared from a first solution and a second solution. For the first solution, 3.0 mg of β-AED or β-AET was added to warm PEG 300 to prepare 50 mM stock. For the second solution, 10 μL of LIPOFECTAMINE (3:1 DOSPA: DOPE) was introduced to 100 μL of PEG 300, mixed, and incubated in a water bath at 42° C. for 30 min. The first and second solutions were then mixed in a sonicator water bath at 42° C. for 1 hr. The final concentration was 50 mM β-AED (or AET, as used).
(§3) A β-estradiol solution was also prepared by adding 2.7 mg of β-estradiol to 200 μL warmed PEG 300 with LIPOFECTAMINE and then further diluted 1:1000 with PEG-300. The final concentration was 50 μM.
A diluted β-AED (or β-AET) solution was prepared with complete medium at a final concentration of 50 μM (1:1000 dilute of 50 mM). Likewise, a diluted β-E2 solution was prepared with complete medium at a final concentration of 10 nM (1:5000 dilute of 50 μM).
Using a 24-well plate, mixtures of 0.5 mL of cells per well with 0.5 mL of medium diluted hormone vehicle. Cell cultures were maintained at 90% humidity, 7% CO2, and 37° C.

[2] = tested on: MDA-MB-231 breast cancer cell; assay: Cell death in MDA-MB-231 breast cancer cell cultures; assay type: cell-based; conditions: 25 μM β-AED, 25 μM β-AET, 5 nM E2; PEG 300 with LIPOFECTAMINE vehicle
Method: as §1, §2, §3
A diluted β-AED (or β-AET) solution was prepared with complete medium at a final concentration of 50 μM (1:1000 dilute of 50 mM). Likewise, a diluted β-E2 solution was prepared with complete medium at a final concentration of 10 nM (1:5000 dilute of 50 μM). […]

[3] = tested on: 293T cells; assay: Biological function (phenotype, mobile cells) in 293T cells; assay type: cell-based, human; conditions: for mobile cells / mobile elements / processes (photograph): vehicle PEG 300 with LIPOFECTAMINE, 25 μM β-AED, 5 nM E2
Method: A non-toxic vehicle for administration of androstene hormones according to embodiments of the present invention was prepared from a first solution and a second solution. The first solution, comprising liposomal formulation, was placed in PEG 300 to a concentration of 5% and heated in a sonicating water bath to about 45° C. The second solution, comprising a selected hormone (one or more of 5Δ-androsten-3β, 17α-diol, 5Δ-androsten-3β, 17β-diol, or 5Δ-androsten-3β,7β,17β-triol), was placed in PEG 300 and heated in a sonicating water bath to about 45° C. The first and second solutions were then combine and stirred until dissolved.
Biological function was tested in 293T cells, which is a human embryonic cell line transformed with Large T antigen […] SV40. This hypotriploid (polyploid) cell line is particularly useful in such transformation studies and has very distinct phenotypes when grown. All androstene hormone treatment applications were at concentrations of 25 μM.

[4] = vehicle PEG 300 only, androstene hormone 25 μM

Compound	cell growth / cell density (microscopic photograph) [1]	MDA-MB-231 Cell Death Amount [2]	mobile cells / cell processes (photograph) [3, 4]	mobile cells / mobile elements / processes (photograph) [3]	MCF7 Cell Death Amount ([1]; 25 μM β-AED, 25 μM β-AET, PEG 300 with LIPOFECTAMINE vehicle)	cell islands (photograph) [3, 4]
C[C@]12CC[C@H]3[C@@H]([C@@H](O)C=C4C[C@@H](O)CC[C@@]43C)[C@@H]1CC[C@@H]2O [β-AET, 5-androstene-3β,7β,17β-triol]	thick and similar to the cell growth of FIG. 14					
C[C@]12CC[C@@H]3c4ccc(O)cc4CC[C@H]3[C@@H]1CC[C@@H]2O [E2, 17β-estradiol]	thick and similar to the cell growth of FIGS. 14 and 16	Not observed	many more cell processes	many large islands with mobile processes, small islands with mobile process, and mobile cells forming interconnections with other elements	Not observed	
C[C@]12CC[C@H]3[C@@H](CC=C4C[C@@H](O)CC[C@@]43C)[C@@H]1CC[C@@H]2O [β-AED, androst-5-ene-3β,17β-diol]	areas of decreased density		significant reduction in mobile cells	drastic decrease in, or morphological change, in mobile elements		larger
